Assay results: patent US10072017B2, “Compounds and methods for the treatment of cystic fibrosis” (Flatley Discovery Lab, LLC, priority 2015, dated 2018)

Target: T1, CFTR (Homo sapiens, UniProt P13569, DEL508-508)
T1 construct: Primary CF airway epithelial cells were obtained from the UNC Cystic Fibrosis Tissue Procurement and Cell Culture Core; host or cells: primary CF airway epithelial cells
Assay: Equivalent current assay in Primary CF airway epithelial cells (NAUC)
Type: cell-based
Settings: 24 h, normalized to VX809 (3 μM) positive control; for Nauc @ 3 μM: 3 μM test compound; for Nauc @ 10 μM: 10 μM test compound
Summary of the method: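 Primary CF airway epithelia differentiated ≥4 weeks at air-liquid interface, treated basolaterally 24 h at 37 °C with test compounds in combination with VX809, 0.1% DMSO vehicle. Equivalent current recorded after 5 μM benzamil, 10 μM forskolin plus 1 μM VX770, then CFTR-172/bumetanide 20 μM; vehicle-subtracted AUC normalized to 3 μM VX809 (NAUC), median of n≥4, sigmoid fit for EC50.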

T1 sequence (P13569 with tags, fused parts or gaps DEL508-508): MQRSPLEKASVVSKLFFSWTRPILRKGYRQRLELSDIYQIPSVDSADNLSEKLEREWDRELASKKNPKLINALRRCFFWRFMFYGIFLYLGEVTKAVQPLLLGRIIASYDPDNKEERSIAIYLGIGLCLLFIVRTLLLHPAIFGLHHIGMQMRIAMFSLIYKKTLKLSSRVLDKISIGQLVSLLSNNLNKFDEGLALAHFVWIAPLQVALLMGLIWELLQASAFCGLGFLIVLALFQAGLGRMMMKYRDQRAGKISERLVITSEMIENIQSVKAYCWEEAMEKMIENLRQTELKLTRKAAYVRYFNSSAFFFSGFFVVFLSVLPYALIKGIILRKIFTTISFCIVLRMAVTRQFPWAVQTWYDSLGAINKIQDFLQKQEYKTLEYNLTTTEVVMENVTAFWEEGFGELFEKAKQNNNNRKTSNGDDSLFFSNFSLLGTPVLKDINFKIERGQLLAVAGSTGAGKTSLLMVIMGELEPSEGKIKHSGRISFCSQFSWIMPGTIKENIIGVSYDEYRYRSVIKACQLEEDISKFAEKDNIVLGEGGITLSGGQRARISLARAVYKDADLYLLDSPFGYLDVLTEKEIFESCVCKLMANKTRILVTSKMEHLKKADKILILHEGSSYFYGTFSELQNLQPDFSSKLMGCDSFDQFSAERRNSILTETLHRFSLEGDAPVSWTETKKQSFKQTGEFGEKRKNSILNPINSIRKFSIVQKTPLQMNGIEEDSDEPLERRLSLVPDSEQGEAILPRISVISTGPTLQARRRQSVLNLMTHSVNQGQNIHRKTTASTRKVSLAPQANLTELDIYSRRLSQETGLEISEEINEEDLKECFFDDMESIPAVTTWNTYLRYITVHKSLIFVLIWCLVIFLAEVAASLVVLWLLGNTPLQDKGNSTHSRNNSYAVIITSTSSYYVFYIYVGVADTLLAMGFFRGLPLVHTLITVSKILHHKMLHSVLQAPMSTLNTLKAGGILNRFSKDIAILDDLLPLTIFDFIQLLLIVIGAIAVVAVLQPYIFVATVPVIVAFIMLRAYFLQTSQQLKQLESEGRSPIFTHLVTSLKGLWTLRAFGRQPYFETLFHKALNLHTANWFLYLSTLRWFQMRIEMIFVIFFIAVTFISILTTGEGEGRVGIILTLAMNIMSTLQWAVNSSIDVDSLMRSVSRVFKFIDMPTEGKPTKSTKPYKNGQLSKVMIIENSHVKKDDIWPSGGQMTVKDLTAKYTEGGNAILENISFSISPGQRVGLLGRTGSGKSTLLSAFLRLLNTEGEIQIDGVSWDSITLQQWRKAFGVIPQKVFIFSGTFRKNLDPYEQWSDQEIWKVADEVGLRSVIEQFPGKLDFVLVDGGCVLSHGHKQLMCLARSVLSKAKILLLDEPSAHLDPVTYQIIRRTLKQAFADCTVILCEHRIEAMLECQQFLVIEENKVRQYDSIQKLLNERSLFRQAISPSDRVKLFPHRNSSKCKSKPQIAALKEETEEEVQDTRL

SMILES | Nauc @ 3 μM | Nauc @ 10 μM
O=C1C2C3C[C@H](CF)CN3C3(C(=O)Nc4c(Cl)cc(Cl)cc43)C2C(=O)N1c1cc(Cl)cc(Cl)c1 (stereo partly shown) [Example 109] | ++ (NAUC “++” refers to an observed NAUC 170-140% of positive control) | ++ (NAUC “++” refers to an observed NAUC 170-140% of positive control)
COc1cccc(N2C(=O)C3C4C[C@H](Cl)CN4C4(C(=O)Nc5c(Cl)cc(Cl)cc54)C3C2=O)c1 (stereo partly shown) [Example 113] | + (NAUC “+” refers to an observed NAUC <140% of positive control) | ++ (NAUC “++” refers to an observed NAUC 170-140% of positive control)
COc1cc(Cl)cc(N2C(=O)C3C4CC(=C(F)F)CN4C4(C(=O)Nc5c(Cl)cc(Cl)cc54)C3C2=O)c1 (stereo not shown) [Example 117] | +++ (NAUC “+++” refers to an observed NAUC >170% of positive control) | +++ (NAUC “+++” refers to an observed NAUC >170% of positive control)
COc1c(Cl)cc(N2C(=O)C3C4CC(=C(F)F)CN4C4(C(=O)Nc5c(Cl)cc(Cl)cc54)C3C2=O)cc1Cl (stereo not shown) [Example 121] | ++ (NAUC “++” refers to an observed NAUC 170-140% of positive control) | ++ (NAUC “++” refers to an observed NAUC 170-140% of positive control)
O=C1C2C3CC(=C(F)F)CN3C3(C(=O)Nc4c(Cl)cc(Cl)cc43)C2C(=O)N1c1cc(Cl)cc(Cl)n1 (stereo not shown) [Example 122] | +++ (NAUC “+++” refers to an observed NAUC >170% of positive control) | + (NAUC “+” refers to an observed NAUC <140% of positive control)
O=C1C2C3CC(=C(F)F)CN3C3(C(=O)Nc4c(Cl)cc(Cl)cc43)C2C(=O)N1c1cc(Br)cc(Br)c1 (stereo not shown) [Example 123] | + (NAUC “+” refers to an observed NAUC <140% of positive control) | +++ (NAUC “+++” refers to an observed NAUC >170% of positive control)
O=C1C2C3CC(=C(F)F)CN3C3(C(=O)Nc4c(Cl)cc(Cl)cc43)C2C(=O)N1c1cc(F)cc(Cl)c1 (stereo not shown) [Example 124] | + (NAUC “+” refers to an observed NAUC <140% of positive control) | ++ (NAUC “++” refers to an observed NAUC 170-140% of positive control)
O=C1C2C3CC(=C(F)F)CN3C3(C(=O)Nc4c(Cl)cc(Cl)cc43)C2C(=O)N1c1cc(C(F)(F)F)cc(C(F)(F)F)c1 (stereo not shown) [Example 125] | +++ (NAUC “+++” refers to an observed NAUC >170% of positive control) | + (NAUC “+” refers to an observed NAUC <140% of positive control)
O=C1C2C3CC(=C(F)F)CN3C3(C(=O)Nc4c(Cl)cc(Cl)cc43)C2C(=O)N1c1cccc(C(F)(F)F)c1 (stereo not shown) [Example 126] | +++ (NAUC “+++” refers to an observed NAUC >170% of positive control) | +++ (NAUC “+++” refers to an observed NAUC >170% of positive control)
COc1cc(Cl)cc(N2C(=O)C3C4CC(C)(C)CN4C4(C(=O)Nc5c(Cl)cc(Cl)cc54)C3C2=O)c1 (stereo not shown) [Example 127] | ++ (NAUC “++” refers to an observed NAUC 170-140% of positive control) | + (NAUC “+” refers to an observed NAUC <140% of positive control)
Cc1ccc(N2C(=O)C3C4CCCN4C4(C(=O)Nc5c(C)cccc54)C3C2=O)c(Cl)c1 (stereo not shown) [Example 128] | ++ (NAUC “++” refers to an observed NAUC 170-140% of positive control) | + (NAUC “+” refers to an observed NAUC <140% of positive control)
CC1(C)CC2C3C(=O)N(c4cc(Cl)cc(Cl)n4)C(=O)C3C3(C(=O)Nc4c(Cl)cc(Cl)cc43)N2C1 (stereo not shown) [Example 129] | ++ (NAUC “++” refers to an observed NAUC 170-140% of positive control) | ++ (NAUC “++” refers to an observed NAUC 170-140% of positive control)
COc1cc(Cl)cc(N2C(=O)C3C4CC(C(F)F)CN4C4(C(=O)Nc5c(Cl)cc(Cl)cc54)C3C2=O)c1 (stereo not shown) [Example 130] | + (NAUC “+” refers to an observed NAUC <140% of positive control) | ++ (NAUC “++” refers to an observed NAUC 170-140% of positive control)
O=C1C2C3CC(C(F)F)CN3C3(C(=O)Nc4c(Cl)cc(Cl)cc43)C2C(=O)N1c1cc(Cl)cc(Cl)n1 (stereo not shown) [Example 131] | + (NAUC “+” refers to an observed NAUC <140% of positive control) | ++ (NAUC “++” refers to an observed NAUC 170-140% of positive control)
O=C1C2C3CC(C(F)F)CN3C3(C(=O)Nc4c(Cl)cc(Cl)cc43)C2C(=O)N1c1cc(Cl)nc(Cl)c1 (stereo not shown) [Example 132] | + (NAUC “+” refers to an observed NAUC <140% of positive control) | ++ (NAUC “++” refers to an observed NAUC 170-140% of positive control)
O=C1C2C3CC(C(F)F)CN3C3(C(=O)Nc4c(Cl)cc(Cl)cc43)C2C(=O)N1c1cc(F)cc(Cl)c1 (stereo not shown) [Example 133] | ++ (NAUC “++” refers to an observed NAUC 170-140% of positive control) | ++ (NAUC “++” refers to an observed NAUC 170-140% of positive control)
O=C1C2C3CC(C(F)F)CN3C3(C(=O)Nc4c(Cl)cc(Cl)cc43)C2C(=O)N1c1cccc(C(F)(F)F)c1 (stereo not shown) [Example 134] | + (NAUC “+” refers to an observed NAUC <140% of positive control) | ++ (NAUC “++” refers to an observed NAUC 170-140% of positive control)
CC(=O)N[C@H]1CC2C3C(=O)N(c4cc(Cl)cc(Cl)c4)C(=O)C3C3(C(=O)Nc4c(Cl)cc(Cl)cc43)N2C1 (stereo partly shown) [Example 135] | +++ (NAUC “+++” refers to an observed NAUC >170% of positive control) | + (NAUC “+” refers to an observed NAUC <140% of positive control)
O=C1C2C3CC(C(F)F)CN3C3(C(=O)Nc4c(Cl)cc(Cl)cc43)C2C(=O)N1c1cc(Cl)cc(Cl)c1 (stereo not shown) [Example 136] | +++ (NAUC “+++” refers to an observed NAUC >170% of positive control) | +++ (NAUC “+++” refers to an observed NAUC >170% of positive control)
O=C1C2C3CC(C(F)F)CN3C3(C(=O)Nc4c(Cl)cc(Cl)cc43)C2C(=O)N1c1cc(Cl)cc(Cl)c1 (stereo not shown) [Example 137] | +++ (NAUC “+++” refers to an observed NAUC >170% of positive control) | +++ (NAUC “+++” refers to an observed NAUC >170% of positive control)
[2H]C12C(=O)N(c3cc(Cl)cc(OC)c3)C(=O)C1([2H])C1(C(=O)Nc3c(Cl)cc(Cl)cc31)N1C[C@@H](F)CC12 (stereo partly shown) [Example 145] | + (NAUC “+” refers to an observed NAUC <140% of positive control) | +++ (NAUC “+++” refers to an observed NAUC >170% of positive control)
[2H]C12C(=O)N(c3cc(Cl)cc(OC)c3)C(=O)C1([2H])C1(C(=O)Nc3c(Cl)cc(Cl)cc31)N1C[C@@H](Cl)CC12 (stereo partly shown) [Example 146] | +++ (NAUC “+++” refers to an observed NAUC >170% of positive control) | +++ (NAUC “+++” refers to an observed NAUC >170% of positive control)
[2H]C12C(=O)N(c3cc(Cl)cc(Cl)c3)C(=O)C1([2H])C1(C(=O)Nc3c(Cl)cc(Cl)cc31)N1CC(C)(C)CC12 (stereo not shown) [Example 147] | +++ (NAUC “+++” refers to an observed NAUC >170% of positive control) | +++ (NAUC “+++” refers to an observed NAUC >170% of positive control)
